Test results reported in patent US7550471B2, “5-alkyl-7-aminotriazolopyrimidines, methods and intermediary product necessary for the production thereof, agents containing said compounds and the use thereof for fighting against harmful mushrooms” (BASF Aktiengesellschaft, priority 2002, dated 2009).

System: Alternaria solani
Assay: Activity against early blight of tomato caused by Alternaria solani
Format: in vivo
Conditions: 250 ppm active compound, tomato plants sprayed one day before infection, assessed after 5 days; untreated plants 90% infected
Procedure: The active compounds were formulated separately as a stock solution comprising 0.25% by weight of active compound in acetone or DMSO. 1% by weight of the emulsifier Uniperol® EL (wetting agent having emulsifying and dispersing action based on ethoxylated alkylphenols) was added to this solution. The stock solutions of the active compounds were diluted with water to the stated concentration. Leafs of potted plants of the cultivar “Groβe Fleischtomate St. Pierre” were sprayed to run off point with an aqueous suspension having the concentration of active compound stated below. The next day, the leaves were infected with an aqueous spore suspension of Alternaria solani in a 2% strength biomalt solution of a density of 0.17×10^6 spores/ml. The plants were then placed in a water-vapor-saturated chamber at 20-22° C. After 5 days, the early blight on the untreated but infected control plants had developed to such an extent that the infection could be determined visually in %.

With `Cc1nc2ncnn2c(N2CCC(C)CC2)c1C1CCCC1` [Compound I-1, 5-methyl-6-cyclopentyl-7-(4-methyl-piperidin-1-yl)-[1,2,4]triazolo[1,5-a]pyrimidine] the “infection (early blight, determined visually in %)” value was “no infection”.
